# Data: patent publication US20080139558A1, “QUINOLONES USEFUL AS INDUCIBLE NITRIC OXIDE SYNTHASE INHIBITORS” (KALYPSYS, INC., priority 2006, published 2008)
# Biological target: T1, human iNOS (Homo sapiens, UniProt P35228)
# T1 construct: expressed in transfected cells; host or cells: HEK293
# Experiment: DAN assay of nitric oxide production (hiNOS)
# Format: cell-based
# Settings: enzyme expressed in HEK293 cells transiently transfected with human iNOS
# Method in brief: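 Human iNOS transiently expressed in HEK293 cells; NO production quantified as nitrite via 2,3-diaminonaphthalene reaction forming fluorescent naphthotriazole.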
# T1 sequence (P35228 whole entry): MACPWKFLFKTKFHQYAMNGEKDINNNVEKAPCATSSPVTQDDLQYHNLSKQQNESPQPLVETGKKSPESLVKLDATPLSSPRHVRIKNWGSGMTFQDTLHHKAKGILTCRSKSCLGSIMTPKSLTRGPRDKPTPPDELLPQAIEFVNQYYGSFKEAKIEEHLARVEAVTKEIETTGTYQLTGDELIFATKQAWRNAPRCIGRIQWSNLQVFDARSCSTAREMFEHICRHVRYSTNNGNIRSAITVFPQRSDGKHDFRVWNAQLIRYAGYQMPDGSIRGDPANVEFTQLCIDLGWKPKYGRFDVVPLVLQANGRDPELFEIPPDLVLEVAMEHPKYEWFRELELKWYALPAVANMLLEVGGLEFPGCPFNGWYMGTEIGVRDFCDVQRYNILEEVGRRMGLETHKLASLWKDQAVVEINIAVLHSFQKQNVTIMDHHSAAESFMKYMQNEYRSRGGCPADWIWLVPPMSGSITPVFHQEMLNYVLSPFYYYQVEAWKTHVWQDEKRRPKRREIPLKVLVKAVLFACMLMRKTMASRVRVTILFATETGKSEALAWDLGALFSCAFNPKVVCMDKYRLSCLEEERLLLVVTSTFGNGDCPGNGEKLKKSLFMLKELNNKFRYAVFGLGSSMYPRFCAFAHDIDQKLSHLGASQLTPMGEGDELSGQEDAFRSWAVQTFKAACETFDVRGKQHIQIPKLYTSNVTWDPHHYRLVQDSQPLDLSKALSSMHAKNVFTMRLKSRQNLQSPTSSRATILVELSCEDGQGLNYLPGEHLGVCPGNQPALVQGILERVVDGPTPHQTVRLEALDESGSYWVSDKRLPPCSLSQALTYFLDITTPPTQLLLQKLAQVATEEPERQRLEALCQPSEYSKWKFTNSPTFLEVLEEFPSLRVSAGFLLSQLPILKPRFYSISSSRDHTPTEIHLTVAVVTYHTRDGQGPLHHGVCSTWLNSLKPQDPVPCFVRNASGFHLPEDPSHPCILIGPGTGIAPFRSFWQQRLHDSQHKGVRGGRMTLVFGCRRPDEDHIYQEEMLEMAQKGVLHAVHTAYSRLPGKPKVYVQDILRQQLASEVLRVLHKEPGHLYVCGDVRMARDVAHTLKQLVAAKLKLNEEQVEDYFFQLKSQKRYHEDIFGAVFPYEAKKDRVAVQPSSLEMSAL
row,Compound,EC50
1,"O=c1cc(Cn2c(C3CCNCC3)nc3ccccc32)c2ccc(F)c(F)c2[nH]1 [Example 212, 7,8-Difluoro-4-((2-(piperidin-4-yl)-1H-benzo[d]imidazol-1-yl)methyl)quinolin-2(1H)-one]",> 5 µM
2,"O=c1cc(Cn2c(CCC3CCCCC3)nc3ccccc32)c2ccc(F)c(F)c2[nH]1 [Example 213, 4-((2-(2-Cyclohexylethyl)-1H-benzo[d]imidazol-1-yl)methyl)-7,8-difluoroquinolin-2(1H)-one]",> 5 µM
3,"Cc1ccccc1Cc1nc2ccccc2n1Cc1cc(=O)[nH]c2c(F)c(F)ccc12 [Example 216, 7,8-Difluoro-4-((2-(2-methylbenzyl)-1H-benzo[d]imidazol-1-yl)methyl)quinolin-2(1H)-one]",> 5 µM
4,"Cc1c(-c2nc3ccccc3n2Cc2cc(=O)[nH]c3c(F)c(F)ccc23)ncn1C [Example 226, 4-((2-(1,5-Dimethyl-1H-imidazol-4-yl)-1H-benzo[d]imidazol-1-yl)methyl)-7,8-difluoroquinolin-2(1H)-one]",> 5 µM
5,"CC(C)c1nc2cc(F)c(F)cc2n1Cc1cc(=O)[nH]c2c(F)c(F)ccc12 [Example 229, 7,8-Difluoro-4-((5,6-difluoro-2-isopropyl-1H-benzo[d]imidazol-1-yl)methyl)quinolin-2(1H)-one]",> 5 µM
6,"CC(C)c1nc2ccn(Cc3cc(=O)[nH]c4c(F)c(F)ccc34)cc-2n1 [Example 230, 7,8-Difluoro-4-((2-isopropyl-5H-imidazo[4,5-c]pyridin-5-yl)methyl)quinolin-2(1H)-one]",> 5 µM
7,"CC(C)(C)Cc1nc2ccccc2n1Cc1cc(=O)[nH]c2c(F)c(F)ccc12 [Example 237, 7,8-Difluoro-4-((2-neopentyl-1H-benzo[d]imidazol-1-yl)methyl)quinolin-2(1H)-one]",> 5 µM
8,"CC(C)c1nn(Cc2cc(=O)[nH]c3c(F)c(F)ccc23)c2ccccc12 [Example 239, 7,8-Difluoro-4-((3-isopropyl-1H-indazol-1-yl)methyl)quinolin-2(1H)-one]",> 5 µM
9,"Cc1ccccc1-c1nc2ccccc2n1Cc1cc(=O)[nH]c2c(F)c(F)ccc12 [Example 240, 7,8-Difluoro-4-((2-o-tolyl-1H-benzo[d]imidazol-1-yl)methyl)quinolin-2(1H)-one]",> 5 µM
10,"CN(C)c1ccccc1-c1nc2ccccc2n1Cc1cc(=O)[nH]c2c(F)c(F)ccc12 [Example 242, 4-((2-(2-(Dimethylamino)phenyl)-1H-benzo[d]imidazol-1-yl)methyl)-7,8-difluoroquinolin-2(1H)-one]",> 5 µM
11,"Cc1ccc(C)c(-c2nc3ccccc3n2Cc2cc(=O)[nH]c3c(F)c(F)ccc23)c1 [Example 243, 4-((2-(2,5-Dimethylphenyl)-1H-benzo[d]imidazol-1-yl)methyl)-7,8-difluoroquinolin-2(1H)-one]",> 5 µM
12,"Cc1cccc(C)c1-c1nc2ccccc2n1Cc1cc(=O)[nH]c2c(F)c(F)ccc12 [Example 246, 4-((2-(2,6-Dimethylphenyl)-1H-benzo[d]imidazol-1-yl)methyl)-7,8-difluoroquinolin-2(1H)-one]",> 5 µM
13,"O=c1cc(Cn2c(-c3c(F)cccc3F)nc3ccccc32)c2ccc(F)c(F)c2[nH]1 [Example 247, 4-((2-(2,6-Difluorophenyl)-1H-benzo[d]imidazol-1-yl)methyl)-7,8-difluoroquinolin-2(1H)-one]",> 5 µM
14,"O=c1cc(Cn2c(Cn3ccnc3)nc3ccccc32)c2ccc(F)c(F)c2[nH]1 [Example 251, 4-((2-((1H-Imidazol-1-yl)methyl)-1H-benzo[d]imidazol-1-yl)methyl)-7,8-difluoroquinolin-2(1H)-one]",> 5 µM
15,"Cc1ncsc1C(=O)N(c1cccc(Cl)c1)C(F)c1cc(=O)[nH]c2c(F)cccc12 (stereo not drawn) [Example 253, N-(3-Chlorophenyl)-N-(fluoro(8-fluoro-2-oxo-1,2-dihydroquinolin-4-yl)methyl)-4-methylthiazole-5-carboxamide]",≤ 5 µM
16,"CC(C)c1cn(Cc2cc(=O)[nH]c3c(F)c(F)ccc23)c(-c2ccccc2)n1 [Example 254, 7,8-Difluoro-4-((4-isopropyl-2-phenyl-1H-imidazol-1-yl)methyl)quinolin-2(1H)-one]",≤ 5 µM
17,"CC(C)c1ncc(-c2ccccc2)n1Cc1cc(=O)[nH]c2c(F)c(F)ccc12 [Example 255, 7,8-Difluoro-4-((2-isopropyl-5-phenyl-1H-imidazol-1-yl)methyl)quinolin-2(1H)-one]",> 5 µM
18,"Cc1nc(C)n(Cc2cc(=O)[nH]c3c(F)c(F)ccc23)c1C [Example 256, 7,8-Difluoro-4((2,4,5-trimethyl-1H-imidazol-1-yl)methyl)quinolin-2(1H)-one]",> 5 µM
19,"Cc1nc(-c2cccc(Cl)c2)n(Cc2cc(=O)[nH]c3c(F)c(F)ccc23)c1C [Example 257, 4-((2-(3-Chlorophenyl)-4,5-dimethyl-1H-imidazol-1-yl)methyl)-7,8-difluoroquinolin-2(1H)-one]",≤ 5 µM
20,"Cc1c(-c2ccccc2)nc(C(C)C)n1Cc1cc(=O)[nH]c2c(F)c(F)ccc12 [Example 258, 7,8-Difluoro-4-((2-isopropyl-5-methyl-4-phenyl-1H-imidazol-1-yul)methyl)quinolin-2(1H)-one]",> 5 µM

# Results, then the compound that gave them:
row,EC50,Compound
1,≤ 5 µM,"O=c1cc(Cn2c(C3CCC3)nc3ccccc32)c2ccc(F)c(F)c2[nH]1 [Example 207, 4-((2-Cyclobutyl-1H-benzo[d]imidazol-1-yl)methyl)-7,8-difluoroquinolin-2(1H)-one]"
2,≤ 5 µM,"Cc1nccn1-c1nc2ccccc2n1Cc1cc(=O)[nH]c2c(F)c(F)ccc12 [Example 208, 7,8-Difluoro-4-((2-(2-methyl-1H-imidazol-1-yl)-1H-benzo[d]imidazol-1-yl)methyl)quinolin-2(1H)-one]"
3,≤ 5 µM,"O=c1cc(Cn2c(C3CCCC3)nc3ccccc32)c2ccc(F)c(F)c2[nH]1 [Example 209, 4-((2-Cyclopentyl-1H-benzo[d]imidazol-1-yl)methyl)-7,8-difluoroquinolin-2(1H)-one]"
4,≤ 5 µM,"CC(C)CCc1nc2ccccc2n1Cc1cc(=O)[nH]c2c(F)c(F)ccc12 [Example 211, 7,8-Difluoro-4-((2-isopentyl-1H-benzo[d]imidazol-1-yl)methyl)quinolin-2(1H)-one]"
5,≤ 5 µM,"O=c1cc(Cn2c(Cc3ccccc3)nc3ccccc32)c2ccc(F)c(F)c2[nH]1 [Example 214, 4-((2-Benzyl-1H-benzo[d]imidazol-1-yl)methyl)-7,8-difluoroquinolin-2(1H)-one]"
6,≤ 5 µM,"O=c1cc(Cn2c(CC3CCCC3)nc3ccccc32)c2ccc(F)c(F)c2[nH]1 [Example 215, 4-((2-(Cyclopentylmethyl)-1H-benzo[d]imidazol-1-yl)methyl)-7,8-difluoroquinolin-2(1H)-one]"
7,≤ 5 µM,"CCC(CC)c1nc2ccccc2n1Cc1cc(=O)[nH]c2c(F)c(F)ccc12 [Example 217, 7,8-Difluoro-4-((2-(pentan-3-yl)-1H-benzo[d]imidazol-1-yl)methyl)quinolin-2(1H)-one]"
8,≤ 5 µM,"O=c1cc(Cn2c(-n3ccnc3)nc3ccccc32)c2ccc(F)c(F)c2[nH]1 [Example 218, 4-((2-(1H-Imidazol-1-yl)-1H-benzo[d]imidazol-1-yl)methyl)-7,8-difluoroquinolin-2(1H)-one]"
9,≤ 5 µM,"CCCc1nc2ccccc2n1Cc1cc(=O)[nH]c2c(F)c(F)ccc12 [Example 219, 7,8-Difluoro-4-((2-propyl-1H-benzo[d]imidazol-1-yl)methyl)quinolin-2(1H)-one]"
10,≤ 5 µM,"CCc1nc2ccccc2n1Cc1cc(=O)[nH]c2c(F)c(F)ccc12 [Example 221, 7,8-Difluoro-4-((2-ethyl-1H-benzo[d]imidazol-1-yl)methyl)quinolin-2(1H)-one]"
11,≤ 5 µM,"Cc1cccc2c1nc(C(C)C)n2Cc1cc(=O)[nH]c2c(F)c(F)ccc12 [Example 224, 7,8-Difluoro-4-((2-isopropyl-4-methyl-1H-benzo[d]imidazol-1-yl)methyl)quinolin-2(1H)-one]"
12,≤ 5 µM,"Cc1cccc2c1nc(CC(C)C)n2Cc1cc(=O)[nH]c2c(F)c(F)ccc12 [Example 225, 7,8-Difluoro-4-((2-isobutyl-4-methyl-1H-benzo[d]imidazol-1-yl)methyl)quinolin-2(1H)-one]"
13,≤ 5 µM,"Cc1noc(C)c1-c1nc2ccccc2n1Cc1cc(=O)[nH]c2c(F)c(F)ccc12 [Example 232, 4-((2-(3,5-Dimethylisoxazol-4-yl)-1H-benzo[d]imidazol-1-yl)methyl)-7,8-difluoroquinolin-2(1H)-one]"
14,≤ 5 µM,"Cn1nccc1-c1nc2ccccc2n1Cc1cc(=O)[nH]c2c(F)c(F)ccc12 [Example 233, 7,8-Difluoro-4-((2-(1-methyl-1H-pyrazol-5-yl)-1H-benzo[d]imidazol-1-yl)methyl)quinolin-2(1H)-one]"
15,≤ 5 µM,"O=c1cc(Cn2c(-c3ccccc3Cl)nc3ccccc32)c2ccc(F)c(F)c2[nH]1 [Example 241, 4-((2-(2-Chlorophenyl)-1H-benzo[d]imidazol-1-yl)methyl)-7,8-difluoroquinolin-2(1H)-one]"
16,≤ 5 µM,"O=c1cc(Cn2c(-c3ccncc3F)nc3ccccc32)c2ccc(F)c(F)c2[nH]1 [Example 244, 7,8-Difluoro-4-((2-(3-fluoropyridin-4-yl)-1H-benzo[d]imidazol-1-yl)methyl)quinolin-2(1H)-one]"
17,≤ 5 µM,"O=c1cc(Cn2c(-c3ccccc3C(F)(F)F)nc3ccccc32)c2ccc(F)c(F)c2[nH]1 [Example 245, 7,8-Difluoro-4-((2-(2-(trifluoromethyl)phenyl)-1H-benzo[d]imidazol-1-yl)methyl)quinolin-2(1H)-one]"
18,≤ 5 µM,"O=c1cc(Cn2c(-c3ccncc3Cl)nc3ccccc32)c2ccc(F)c(F)c2[nH]1 [Example 248, 4-((2-(3-Chloropyridin-4-yl)-1H-benzo[d]imidazol-1-yl)methyl)-7,8-difluoroquinolin-2(1H)-one]"
19,≤ 5 µM,"O=C1CCN(c2ccccc2)N1Cc1cc(=O)[nH]c2c(F)c(F)ccc12 [Example 252, 7,8-Difluoro-4-((5-oxo-2-phenylpyrazolidin-1-yl)methyl)quinolin-2(1H)-one]"
